Experimental data from patent US20250228239A1, “MOLECULES HAVING PESTICIDAL UTILITY, AND INTERMEDIATES, COMPOSITIONS, AND PROCESSES, RELATED THERETO” (priority 2024, published 2025).

Assays:
[1] = tested on: Beet Armyworm (Spodoptera exigua, LAPHEG); experiment: Bioassays on Beet Armyworm (BAW), 128-well diet tray assay; type: in vivo; conditions: Spodoptera exigua; Beet Armyworm; rating class; read-out: BAW
Procedure, shortened: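 One to five second-instar larvae per well on artificial diet surface-treated with 50 μg/cm^2 test molecule (applied in 90:10 acetone-water, dried), eight wells per compound. Trays held vented at 25° C., 14:10 light-dark for five to seven days; percent mortality averaged over the eight wells.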

[2] = tested on: Cabbage Looper (Trichoplusia ni, TRIPNI); experiment: Bioassays on Cabbage Looper (CL), 128-well diet tray assay; type: in vivo; conditions: Trichoplusia ni; Cabbage Looper; rating class; read-out: CL
Procedure, shortened: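 Test molecule was dissolved in 90:10 acetone-water, applied to artificial diet at 50 μg/cm^2 and allowed to dry. Second-instar larvae were then added, one to five per well, and trays held at 25° C for five to seven days before mortality was scored and averaged.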

In the case of `O=C(Nc1cc(NC(=O)C(F)F)c(F)cc1F)c1cc(NC(=O)[C@H]2[C@H](c3cc(Cl)c(Cl)c(Cl)c3)C2(Cl)Cl)cc(F)c1Cl` [F1404, 2-Chloro-5-((1R,3R)-2,2-dichloro-3-(3,4,5-trichlorophenyl)cyclopropane-1-carboxamido)-N-(5-(2,2-difluoroacetamido)-2,4-difluorophenyl)-3-fluorobenzamide], the pest or weed control at 50 µg/cm2 [1] is reported as 50 to 100% and the pest or weed control at 50 µg/cm2 [2] is reported as 50 to 100%.
`O=C(Nc1cc(NC(=O)C(F)(F)F)c(F)cc1F)c1cc(NC(=O)[C@H]2[C@H](c3cc(Cl)c(Cl)c(Cl)c3)C2(Cl)Cl)cc(F)c1Cl` [F1405, 2-Chloro-5-((1R,3R)-2,2-dichloro-3-(3,4,5-trichlorophenyl)cyclopropane-1-carboxamido)-N-(2,4-difluoro-5-(2,2,2-trifluoroacetamido)phenyl)-3-fluorobenzamide] gave a pest or weed control at 50 µg/cm2 [1] of 50 to 100% and a pest or weed control at 50 µg/cm2 [2] of 50 to 100%.
Work on `O=C(Nc1cc(NC(=O)C(F)F)c(F)cc1F)c1cc(NC(=O)[C@H]2[C@H](c3ccc(F)c(C(F)(F)F)c3)C2(Cl)Cl)cc(F)c1Cl` [F1406, 2-Chloro-5-((1R,3R)-2,2-dichloro-3-(4-fluoro-3-(trifluoromethyl)phenyl)cyclopropane-1-carboxamido)-N-(5-(2,2-difluoroacetamido)-2,4-difluorophenyl)-3-fluorobenzamide] yielded a pest or weed control at 50 µg/cm2 [1] of 50 to 100% and a pest or weed control at 50 µg/cm2 [2] of 50 to 100%.
`O=C(Nc1cc(NC(=O)C(F)(F)F)c(F)cc1F)c1cc(NC(=O)[C@H]2[C@H](c3ccc(F)c(C(F)(F)F)c3)C2(Cl)Cl)cc(F)c1Cl` [F1407, 2-Chloro-5-((1R,3R)-2,2-dichloro-3-(4-fluoro-3-(trifluoromethyl)phenyl)cyclopropane-1-carboxamido)-N-(2,4-difluoro-5-(2,2,2-trifluoroacetamido)phenyl)-3-fluorobenzamide] showed a pest or weed control at 50 µg/cm2 [1] of 50 to 100% and a pest or weed control at 50 µg/cm2 [2] of 50 to 100%.
`O=C(Nc1cc(NC(=O)C(F)F)c(F)cc1F)c1cc(NC(=O)[C@H]2[C@H](c3cc(Cl)cc(Cl)c3)C2(Cl)Cl)cc(F)c1Cl` [F1408, 2-Chloro-5-((1R,3R)-2,2-dichloro-3-(3,5-dichlorophenyl)cyclopropane-1-carboxamido)-N-(5-(2,2-difluoroacetamido)-2,4-difluorophenyl)-3-fluorobenzamide] showed a pest or weed control at 50 µg/cm2 [1] of 50 to 100% and a pest or weed control at 50 µg/cm2 [2] of 50 to 100%.
`O=C(Nc1cc(NC(=O)C(F)(F)F)c(F)cc1F)c1cc(NC(=O)[C@H]2[C@H](c3cc(Cl)cc(Cl)c3)C2(Cl)Cl)cc(F)c1Cl` [F1409, 2-Chloro-5-((1R,3R)-2,2-dichloro-3-(3,5-dichlorophenyl)cyclopropane-1-carboxamido)-N-(2,4-difluoro-5-(2,2,2-trifluoroacetamido)phenyl)-3-fluorobenzamide] was tested, and the pest or weed control at 50 µg/cm2 [1] was 50 to 100% and the pest or weed control at 50 µg/cm2 [2] was 50 to 100%.
In the case of `O=C(Nc1ccc(F)c(NC(=O)C(F)F)c1F)c1cc(NC(=O)[C@H]2[C@H](c3ccc(Cl)c(Br)c3)C2(Cl)Cl)ccc1Cl` [F1411, 5-((1R,3R)-3-(3-Bromo-4-chlorophenyl)-2,2-dichlorocyclopropane-1-carboxamido)-2-chloro-N-(3-(2,2-difluoroacetamido)-2,4-difluorophenyl)benzamide], the pest or weed control at 50 µg/cm2 [1] is reported as 50 to 100% and the pest or weed control at 50 µg/cm2 [2] is reported as 50 to 100%.
`CC(=O)Nc1c(Cl)ccc(NC(=O)c2cc(NC(=O)[C@H]3[C@H](c4ccc(F)c(C(F)(F)F)c4)C3(Cl)Cl)ccc2Cl)c1Cl` [F1412, N-(3-Acetamido-2,4-dichlorophenyl)-2-chloro-5-((1R,3R)-2,2-dichloro-3-(4-fluoro-3-(trifluoromethyl)phenyl)cyclopropane-1-carboxamido)benzamide] was tested, and the pest or weed control at 50 µg/cm2 [1] was 50 to 100% and the pest or weed control at 50 µg/cm2 [2] was 50 to 100%.
For `Cc1cc(NC(=O)[C@H]2[C@H](c3ccc(Cl)c(Cl)c3)C2(Cl)Cl)cc(C(=O)Nc2c(F)ccc(N)c2F)c1Cl` [F1426, N-(3-Amino-2,6-difluorophenyl)-2-chloro-5-((1R,3R)-2,2-dichloro-3-(3,4-dichlorophenyl)cyclopropane-1-carboxamido)-3-methylbenzamide], the pest or weed control at 50 µg/cm2 [1] was 50 to 100% and the pest or weed control at 50 µg/cm2 [2] was 50 to 100%.
In the case of `Cc1cc(NC(=O)[C@H]2[C@H](c3cc(Cl)c(Cl)c(Cl)c3)C2(Cl)Cl)cc(C(=O)Nc2c(F)ccc(N)c2F)c1Cl` [F1427, N-(3-Amino-2,6-difluorophenyl)-2-chloro-5-((1R,3R)-2,2-dichloro-3-(3,4,5-trichlorophenyl)cyclopropane-1-carboxamido)-3-methylbenzamide], the pest or weed control at 50 µg/cm2 [1] is reported as 50 to 100% and the pest or weed control at 50 µg/cm2 [2] is reported as 50 to 100%.
`Cc1cc(NC(=O)[C@H]2[C@H](c3ccc(F)c(C(F)(F)F)c3)C2(Cl)Cl)cc(C(=O)Nc2c(F)ccc(N)c2F)c1Cl` [F1428, N-(3-Amino-2,6-difluorophenyl)-2-chloro-5-((1R,3R)-2,2-dichloro-3-(4-fluoro-3-(trifluoromethyl)phenyl)cyclopropane-1-carboxamido)-3-methylbenzamide] was tested, and the pest or weed control at 50 µg/cm2 [1] was 50 to 100% and the pest or weed control at 50 µg/cm2 [2] was 50 to 100%.
For `Cc1cc(NC(=O)[C@H]2[C@H](c3ccc(Cl)c(Cl)c3)C2(Cl)Cl)cc(C(=O)Nc2c(F)ccc(NC(=O)C(F)F)c2F)c1Cl` [F1429, 2-Chloro-5-((1R,3R)-2,2-dichloro-3-(3,4-dichlorophenyl)cyclopropane-1-carboxamido)-N-(3-(2,2-difluoroacetamido)-2,6-difluorophenyl)-3-methylbenzamide], the pest or weed control at 50 µg/cm2 [1] was 50 to 100% and the pest or weed control at 50 µg/cm2 [2] was 50 to 100%.
With `Cc1cc(NC(=O)[C@H]2[C@H](c3ccc(Cl)c(Cl)c3)C2(Cl)Cl)cc(C(=O)Nc2c(F)ccc(NC(=O)C(F)(F)F)c2F)c1Cl` [F1430, 2-Chloro-5-((1R,3R)-2,2-dichloro-3-(3,4-dichlorophenyl)cyclopropane-1-carboxamido)-N-(2,6-difluoro-3-(2,2,2-trifluoroacetamido)phenyl)-3-methylbenzamide] the pest or weed control at 50 µg/cm2 [1] was 50 to 100% and the pest or weed control at 50 µg/cm2 [2] was 50 to 100%.
For `Cc1cc(NC(=O)[C@H]2[C@H](c3cc(Cl)c(Cl)c(Cl)c3)C2(Cl)Cl)cc(C(=O)Nc2c(F)ccc(NC(=O)C(F)F)c2F)c1Cl` [F1431, 2-Chloro-5-((1R,3R)-2,2-dichloro-3-(3,4,5-trichlorophenyl)cyclopropane-1-carboxamido)-N-(3-(2,2-difluoroacetamido)-2,6-difluorophenyl)-3-methylbenzamide], the pest or weed control at 50 µg/cm2 [1] was 50 to 100% and the pest or weed control at 50 µg/cm2 [2] was 50 to 100%.
`Cc1cc(NC(=O)[C@H]2[C@H](c3cc(Cl)c(Cl)c(Cl)c3)C2(Cl)Cl)cc(C(=O)Nc2c(F)ccc(NC(=O)C(F)(F)F)c2F)c1Cl` [F1432, 2-Chloro-5-((1R,3R)-2,2-dichloro-3-(3,4,5-trichlorophenyl)cyclopropane-1-carboxamido)-N-(2,6-difluoro-3-(2,2,2-trifluoroacetamido)phenyl)-3-methylbenzamide] gave a pest or weed control at 50 µg/cm2 [1] of 50 to 100% and a pest or weed control at 50 µg/cm2 [2] of 50 to 100%.
Work on `CC(=O)Nc1c(F)ccc(NC(=O)c2cc(NC(=O)[C@H]3[C@H](c4cc(Cl)c(Cl)c(Cl)c4)C3(Cl)Cl)cc(F)c2F)c1F` [F1433, N-(3-Acetamido-2,4-difluorophenyl)-5-((1R,3R)-2,2-dichloro-3-(3,4,5-trichlorophenyl)cyclopropane-1-carboxamido)-2,3-difluorobenzamide] yielded a pest or weed control at 50 µg/cm2 [1] of 50 to 100% and a pest or weed control at 50 µg/cm2 [2] of 50 to 100%.
Compound `Cc1cc(NC(=O)[C@H]2[C@H](c3ccc(Cl)c(Cl)c3)C2(Cl)Cl)cc(C(=O)Nc2ccc(F)c(N)c2F)c1Cl` [F1446, N-(3-Amino-2,4-difluorophenyl)-2-chloro-5-((1R,3R)-2,2-dichloro-3-(3,4-dichlorophenyl)cyclopropane-1-carboxamido)-3-methylbenzamide] has a pest or weed control at 50 µg/cm2 [1] of 50 to 100% and a pest or weed control at 50 µg/cm2 [2] of 50 to 100%.
Work on `Cc1cc(NC(=O)[C@H]2[C@H](c3cc(Cl)c(Cl)c(Cl)c3)C2(Cl)Cl)cc(C(=O)Nc2ccc(F)c(N)c2F)c1Cl` [F1449, N-(3-Amino-2,4-difluorophenyl)-2-chloro-5-((1R,3R)-2,2-dichloro-3-(3,4,5-trichlorophenyl)cyclopropane-1-carboxamido)-3-methylbenzamide] yielded a pest or weed control at 50 µg/cm2 [1] of 50 to 100% and a pest or weed control at 50 µg/cm2 [2] of 50 to 100%.
For `Cc1cc(NC(=O)[C@H]2[C@H](c3ccc(F)c(C(F)(F)F)c3)C2(Cl)Cl)cc(C(=O)Nc2ccc(F)c(N)c2F)c1Cl` [F1458, N-(3-Amino-2,4-difluorophenyl)-2-chloro-5-((1R,3R)-2,2-dichloro-3-(4-fluoro-3-(trifluoromethyl)phenyl)cyclopropane-1-carboxamido)-3-methylbenzamide], the pest or weed control at 50 µg/cm2 [1] was 50 to 100% and the pest or weed control at 50 µg/cm2 [2] was 50 to 100%.
`Nc1c(F)ccc(NC(=O)c2cc(NC(=O)[C@H]3[C@H](c4ccc(Cl)c(Cl)c4)C3(Cl)Cl)ccc2F)c1F` [F1459, N-(3-Amino-2,4-difluorophenyl)-5-((1R,3R)-2,2-dichloro-3-(3,4-dichlorophenyl)cyclopropane-1-carboxamido)-2-fluorobenzamide] showed a pest or weed control at 50 µg/cm2 [1] of 50 to 100% and a pest or weed control at 50 µg/cm2 [2] of 50 to 100%.
`CN(C(=O)C(F)F)c1c(F)ccc(NC(=O)c2cc(NC(=O)[C@H]3[C@H](c4cc(Cl)cc(Cl)c4)C3(Cl)Cl)ccc2Cl)c1F` [F1462, 2-Chloro-5-((1R,3R)-2,2-dichloro-3-(3,5-dichlorophenyl)cyclopropane-1-carboxamido)-N-(3-(2,2-difluoro-N-methylacetamido)-2,4-difluorophenyl)benzamide] gave a pest or weed control at 50 µg/cm2 [1] of 50 to 100% and a pest or weed control at 50 µg/cm2 [2] of 50 to 100%.
`O=C(Nc1ccc(F)c(NC(=O)C(F)(F)C(F)(F)C(F)(F)F)c1F)c1cc(NC(=O)[C@H]2[C@H](c3ccc(Cl)c(Cl)c3)C2(Cl)Cl)ccc1Cl` [F1463, 2-Chloro-5-((1R,3R)-2,2-dichloro-3-(3,4-dichlorophenyl)cyclopropane-1-carboxamido)-N-(2,4-difluoro-3-(2,2,3,3,4,4,4-heptafluorobutanamido)phenyl)benzamide] showed a pest or weed control at 50 µg/cm2 [1] of 50 to 100% and a pest or weed control at 50 µg/cm2 [2] of 50 to 100%.
